This note sets out measurements from US20160090556A1, “PRODUCTS COMPRISING MALODOR REDUCTION MATERIALS” (The Procter & Gamble Company, priority 2014, published 2016).

One data set can be described thus: Liquid dish neat product liquid-air partition coefficient. Format: physicochemical.
Conditions: not given
Take `CC(C)=CCCC(C)c1ccc(C)cc1` (stereo not drawn) [Material 713]: the “Log of liquid dish neat product liquid-air partition coefficient (Comment Code K/L)” value (“Log … (Comment Code K/L)” below) was “K (Log of liquid dish neat product liquid-air partition coefficient greater than or equal to −7)”. Still for that read-out and setting: as for `C=CC(=C)CCC=C(C)CCC=C(C)C=O` [Material 613], the entry is “K (Log of liquid dish neat product liquid-air partition coefficient greater than or equal to −7)”; as for `CC/C(=C/CC1CC=C(C)C1(C)C)CO` (stereo not drawn) [Material 1024], “K (Log of liquid dish neat product liquid-air partition coefficient greater than or equal to −7)”; as for `CC(C)=C1CCC2=CC(=O)CC(C)C2(C)C1` (stereo not drawn) [Material 684], “K (Log of liquid dish neat product liquid-air partition coefficient greater than or equal to −7)”. For `CC1=CCCC(C)=CCC(C)(C)C=CC1` [Material 706], the “Log … (Comment Code K/L)” value was “K (Log of liquid dish neat product liquid-air partition coefficient greater than or equal to −7)”. Consider `C=CCCCCCCCCC(=O)OCCCC` [Material 599], for which the “Log … (Comment Code K/L)” value is recorded as “K (Log of liquid dish neat product liquid-air partition coefficient greater than or equal to −7)”. On the same count and under the same terms, under `CCCC(=O)OCCc1ccccc1` [Material 831] stands “K (Log of liquid dish neat product liquid-air partition coefficient greater than or equal to −7)”. On the same count and under the same terms, under `CC(C)c1cccc(C(C)CC=O)c1` (stereo not drawn) [Material 914] stands “K (Log of liquid dish neat product liquid-air partition coefficient greater than or equal to −7)”. The same measure, in the same setting: as for `Cc1cccc(CCO)c1` [Material 928], the entry is “K (Log of liquid dish neat product liquid-air partition coefficient greater than or equal to −7)”; as for `CC(C)=CCC/C(C)=C/CC/C(C)=C/CO` [Material 1065], “K (Log of liquid dish neat product liquid-air partition coefficient greater than or equal to −7)”; as for `CCOCOC1CCCCCCCCCCC1` [Material 607], “K (Log of liquid dish neat product liquid-air partition coefficient greater than or equal to −7)”. Regarding `C=C(C)[C@@H]1CCC2=CCC[C@@H](C)[C@]2(C)C1` [Material 1105], the “Log … (Comment Code K/L)” value is listed as “K (Log of liquid dish neat product liquid-air partition coefficient greater than or equal to −7)”. Take `C=C(C)C1CCC2(C)CCC=C(C)C2C1` (stereo not drawn) [Material 692]: the “Log … (Comment Code K/L)” value is listed as “K (Log of liquid dish neat product liquid-air partition coefficient greater than or equal to −7)”. Still for that read-out and setting: as for `CC(C)c1ccc2ncccc2c1` [Material 778], the entry is “K (Log of liquid dish neat product liquid-air partition coefficient greater than or equal to −7)”; as for `CC1=CC2C(C(C)C)CCC(C)(O)C2CC1` (stereo not drawn) [Material 1046], “K (Log of liquid dish neat product liquid-air partition coefficient greater than or equal to −7)”; as for `CC(C)C1OCCC2(CC3CCC2(C)C3(C)C)O1` (stereo not drawn) [Material 659], “K (Log of liquid dish neat product liquid-air partition coefficient greater than or equal to −7)”. Regarding `C=C(C)C1CCC2(C)CCC=C(C)C2C1` (stereo not drawn) [Material 774], the “Log … (Comment Code K/L)” value is given as “K (Log of liquid dish neat product liquid-air partition coefficient greater than or equal to −7)”.

The same data set, now with this note: class code letter within Comment Code.
Regarding `CC(C=O)Cc1cccc(C(C)(C)C)c1` (stereo not drawn) [Material 134], the “Log … (Comment Code K/L)” value was “K (Log of liquid dish neat product liquid-air partition coefficient greater than or equal to −7)”. For the compound `CC(=CC#N)CCc1ccccc1` [Material 505], the “Log … (Comment Code K/L)” value is recorded as “K (Log of liquid dish neat product liquid-air partition coefficient greater than or equal to −7)”.

Consider `CCC(C)=CCCC(C)=CC#N` [Material 158], for which the “Log … (Comment Code K/L)” value is listed as “K (Log of liquid dish neat product liquid-air partition coefficient greater than or equal to −7)”.

Regarding `CC(C)C(=O)OC1CC2CCC1(C)C2(C)C` (stereo not drawn) [Material 229], the “Log … (Comment Code K/L)” value is “K (Log of liquid dish neat product liquid-air partition coefficient greater than or equal to −7)”. On to `C=CC1(C)CCC(C(C)C)=CC1C(=C)C` (stereo not drawn) [Material 461], for which the “Log … (Comment Code K/L)” value was “K (Log of liquid dish neat product liquid-air partition coefficient greater than or equal to −7)”.

Turning to `C=C1CCCC(C)(C)C1C=CC(C)=O` (stereo not drawn) [Material 324], the “Log … (Comment Code K/L)” value is “K (Log of liquid dish neat product liquid-air partition coefficient greater than or equal to −7)”. Regarding `OCC=Cc1ccccc1` [Material 555], the “Log … (Comment Code K/L)” value is listed as “K (Log of liquid dish neat product liquid-air partition coefficient greater than or equal to −7)”. Still for that read-out and setting: as for `CCOC(=O)C1C2C=CC(C2)C1C(C)C` (stereo not drawn) [Material 280], the entry is “K (Log of liquid dish neat product liquid-air partition coefficient greater than or equal to −7)”; as for `CC(O)C(C)Cc1ccccc1` (stereo not drawn) [Material 82], “K (Log of liquid dish neat product liquid-air partition coefficient greater than or equal to −7)”; as for `COC(OC)C(C)c1ccccc1` (stereo not drawn) [Material 256], “K (Log of liquid dish neat product liquid-air partition coefficient greater than or equal to −7)”. The same measure, in the same setting: under `CC(=O)[C@@]1(C)CC2=C(CCCC2(C)C)C[C@@H]1C` [Material 215] stands “K (Log of liquid dish neat product liquid-air partition coefficient greater than or equal to −7)”; under `COC(C=C(C)CCC=C(C)C)OC` [Material 520], “K (Log of liquid dish neat product liquid-air partition coefficient greater than or equal to −7)”. Still for that read-out and setting: under `c1ccc2c(c1)CC1COCOC21` (stereo not drawn) [Material 247] stands “K (Log of liquid dish neat product liquid-air partition coefficient greater than or equal to −7)”. `CC(=O)OCC=C(C)CCC=C(C)CCC=C(C)C` [Material 368]: the “Log … (Comment Code K/L)” value is on record as “K (Log of liquid dish neat product liquid-air partition coefficient greater than or equal to −7)”. On the same count and under the same terms, as for `CC(C)=CCCC(C)=CCCC(C)=CCO` [Material 369], the entry is “K (Log of liquid dish neat product liquid-air partition coefficient greater than or equal to −7)”. The same measure, in the same setting: under `CC(C)C1CCC(C(C)O)CC1` (stereo not drawn) [Material 83] stands “K (Log of liquid dish neat product liquid-air partition coefficient greater than or equal to −7)”; under `CC(C=O)Cc1ccc(C(C)(C)C)cc1` (stereo not drawn) [Material 162], “K (Log of liquid dish neat product liquid-air partition coefficient greater than or equal to −7)”.

Staying with this data set, now noted: code letters K, L.
With `CCOC(=O)OC1CCCCC1C(C)(C)C` (stereo not drawn) [Material 355], the “Comment Code: Log of liquid dish neat product liquid-air partition coefficient” value (from here on “Comment Code: Log”) is “K (Log of liquid dish neat product liquid-air partition coefficient greater than or equal to −7)”. Consider `CC/C(=C/CC1CC=C(C)C1(C)C)CO` (stereo not drawn) [Material 1024], for which the “Comment Code: Log” value is on record as “K (Log of liquid dish neat product liquid-air partition coefficient greater than or equal to −7)”. On the same count and under the same terms, under `C=CC(C)CCCC(C)(C)O` (stereo not drawn) [Material 437] stands “K (Log of liquid dish neat product liquid-air partition coefficient greater than or equal to −7)”; under `c1ccc(COCc2ccccc2)cc1` [Material 454], “K (Log of liquid dish neat product liquid-air partition coefficient greater than or equal to −7)”. On the same count and under the same terms, as for `CC(C)=C1CCC2=CC(=O)CC(C)C2(C)C1` (stereo not drawn) [Material 684], the entry is “K (Log of liquid dish neat product liquid-air partition coefficient greater than or equal to −7)”. The same measure, in the same setting: under `CC(C)C(=O)OC1CC2CCC1(C)C2(C)C` (stereo not drawn) [Material 229] stands “K (Log of liquid dish neat product liquid-air partition coefficient greater than or equal to −7)”. For the compound `CC(=O)CCC1C(C)=CCCC1(C)C` (stereo not drawn) [Material 448], the “Comment Code: Log” value is “K (Log of liquid dish neat product liquid-air partition coefficient greater than or equal to −7)”. On the same count and under the same terms, under `CC(=O)[C@@]1(C)CC2=C(CCCC2(C)C)C[C@@H]1C` [Material 215] stands “K (Log of liquid dish neat product liquid-air partition coefficient greater than or equal to −7)”; under `CC(=O)C1=C(C)[C@@H]2C[C@@]3(C1)[C@H](C)CC[C@H]3C2(C)C` [Material 1129], “K (Log of liquid dish neat product liquid-air partition coefficient greater than or equal to −7)”. Same read-out and setting: as for `CCCCCCOC(=O)c1ccco1` [Material 275], the entry is “K (Log of liquid dish neat product liquid-air partition coefficient greater than or equal to −7)”; as for `COc1cc(C)ccc1O` [Material 492], “K (Log of liquid dish neat product liquid-air partition coefficient greater than or equal to −7)”; as for `CC(C)=CCC/C(C)=C\COC=O` [Material 59], “K (Log of liquid dish neat product liquid-air partition coefficient greater than or equal to −7)”. As for `CC(C)C1OCCC2(CC3CCC2(C)C3(C)C)O1` (stereo not drawn) [Material 659], the “Comment Code: Log” value is listed as “K (Log of liquid dish neat product liquid-air partition coefficient greater than or equal to −7)”. Regarding `C[C@@H]1CC[C@H]2[C@@H]1[C@H]1[C@@H](CC[C@]2(C)O)C1(C)C` [Material 1140], the “Comment Code: Log” value is listed as “K (Log of liquid dish neat product liquid-air partition coefficient greater than or equal to −7)”.

Still in this data set, the particulars now being: codes K/L of the Comment Code, Table 1.
For the compound `COCc1ccc(O)c(OC)c1` [Material 1113], the “Comment Code: Log” value is listed as “K (Log of liquid dish neat product liquid-air partition coefficient greater than or equal to −7)”.

Consider `CC(=O)C1=C(C)[C@@H]2C[C@@]3(C1)[C@H](C)CC[C@H]3C2(C)C` [Material 1129], for which the “Comment Code: Log” value was “K (Log of liquid dish neat product liquid-air partition coefficient greater than or equal to −7)”. The same measure, in the same setting: under `C[C@@H]1CC[C@H]2[C@@H]1[C@H]1[C@@H](CC[C@]2(C)O)C1(C)C` [Material 1140] stands “K (Log of liquid dish neat product liquid-air partition coefficient greater than or equal to −7)”.
